From article PMC6934184, “Selective DNA-PKcs inhibition extends the therapeutic index of localized radiotherapy and chemotherapy” (The Journal of Clinical Investigation, 2019)

Biological target: T1, ABL1 Q252H (Homo sapiens, UniProt P00519, Q252H)
T1 construct: purchased Thermo Fisher Scientific (Life Technologies) SelectScreen
Assay: SelectScreen LanthaScreen
Assay type: binding
Conditions: read-out: % displacement
Summary of the method: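 SelectScreen broad panel; activity (Z'LYTE, Adapta) plus binding formats. ATP: Km app for CSF1R Z'LYTE; 10 for CAMK1 Adapta. Readout = % per kinase.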

Structure (SMILES): CN(C(=O)CN1CCOCC1)c1ccc2sc3c(-c4cccc5c(=O)cc(N6CC7CCC(C6)O7)oc45)cccc3c2c1 [NU5455]
- inhibition at 1 µM: 1.1%
